Values joined by “and” are separate entries in the source; they are usually repeats but may differ in a detail not shown here. Identical values can stand only once. Like-named read-outs stand apart in the source and are kept apart here. Bridge positions count the residues as written; N and C are the ends. Square brackets hold non-standard residues; d marks the D form. Peptide text beside a SMILES is read from it. hArg = N=C(N)NCCCC[C@H](N)C(=O)O; Mpa = O=C(O)CCS
Test system: washed mouse platelets
Assay: Clot contraction assay, time-lapse imaging of washed mouse platelets with thrombin, fibrinogen and CaCl2
Assay type: cell-based
[1] = blebbistatin 50 μM, standard conditions
[2] = blebbistatin 100 μM, standard conditions
[3] = blebbistatin 200 μM, standard conditions
[4] = CaCl2 0.1 mM, thrombin 20 mU/mL, fibrinogen 250 μg/mL
[5] = CaCl2 0.5 mM, thrombin 20 mU/mL, fibrinogen 250 μg/mL
[6] = CaCl2 1 mM, thrombin 20 mU/mL, fibrinogen 250 μg/mL
[7] = 1 mM EGTA, thrombin 20 mU/mL, fibrinogen 250 μg/mL
[8] = eptifibatide 50 μM, standard conditions
[9] = eptifibatide 100 μM, standard conditions
[10] = eptifibatide 150 μM, standard conditions

SMILES: O=CC[C@@H](O)[C@H](O)[C@H](O)CO [2DG, 2-deoxyglucose, reference compound]
- Reduction of Phase 3 rate (10 mM 2DG): ~5 fold
- AUC (2DG 5 mM, standard conditions): 6.10 AU
- Average Velocity (2DG 5 mM, standard conditions): 0.74 %/min
- Clot Contraction Extent (2DG 5 mM, standard conditions): 72.66%
- Lag time (2DG 5 mM, standard conditions): 23.33 min
- PHASE 1 % Contraction (2DG 5 mM, standard conditions): 2.68%
- PHASE 1 Rate 1 (2DG 5 mM, standard conditions): 2.00 ×10^−3 %/min
- PHASE 1 t1 (2DG 5 mM, standard conditions): 11.67 min
- PHASE 2 % Contraction (2DG 5 mM, standard conditions): 16.98%
- PHASE 2 Rate 2 (2DG 5 mM, standard conditions): 0.88 %/min
- PHASE 2 t2 (2DG 5 mM, standard conditions): 30.33 min
- PHASE 3 % Contraction (2DG 5 mM, standard conditions): 53%
- PHASE 3 Rate 3 (2DG 5 mM, standard conditions): 1.83 ×10^−2 %/min
- AUC (2DG 10 mM, standard conditions): 7.44 AU
- Average Velocity (2DG 10 mM, standard conditions): 0.51 %/min
- Clot Contraction Extent (2DG 10 mM, standard conditions): 50.55%
- Lag time (2DG 10 mM, standard conditions): 37.00 min
- PHASE 1 % Contraction (2DG 10 mM, standard conditions): 5.82%
- PHASE 1 Rate 1 (2DG 10 mM, standard conditions): 3.33 ×10^−3 %/min
- PHASE 1 t1 (2DG 10 mM, standard conditions): 23.33 min
- PHASE 2 % Contraction (2DG 10 mM, standard conditions): 13.04%
- PHASE 2 Rate 2 (2DG 10 mM, standard conditions): 0.69 %/min
- PHASE 2 t2 (2DG 10 mM, standard conditions): 44.33 min
- PHASE 3 % Contraction (2DG 10 mM, standard conditions): 31.68%
- PHASE 3 Rate 3 (2DG 10 mM, standard conditions): 0.87 ×10^−2 %/min
- Detection of the three phases of contraction (2DG 25 mM): none of the three phases were detectible
- AUC (2DG 25 mM, standard conditions): 8.57 AU
- Average Velocity (2DG 25 mM, standard conditions): 0.24 %/min
- Clot Contraction Extent (2DG 25 mM, standard conditions): 23.45%
- Lag time (2DG 25 mM, standard conditions): 99.00 min
- Effect on average velocity (varying 2DG concentrations): significant inhibitory effects
- Effect on extent of contraction (varying 2DG concentrations): significant inhibitory effects
- Effect on lag time (varying 2DG concentrations): prolonged lag time

SMILES: Cc1ccc2c(c1)C(=O)C1(O)CCN(c3ccccc3)C1=N2 (centres unmarked) [Blebbistatin, blebbistatin, reference compound]
- AUC [1]: 4.18 AU
- Average Velocity [1]: 1.00 %/min
- Clot Contraction Extent [1]: 96.93%
- Lag time [1]: 23.33 min
- PHASE 1 % Contraction [1]: 4.23%
- PHASE 1 Rate 1 [1]: 3.67 ×10^−3 %/min
- PHASE 1 t1 [1]: 14.33 min
- PHASE 2 % Contraction [1]: 26.51%
- PHASE 2 Rate 2 [1]: 1.40 %/min
- PHASE 2 t2 [1]: 32.00 min
- PHASE 3 % Contraction [1]: 66.19%
- PHASE 3 Rate 3 [1]: 5.00 ×10^−2 %/min
- AUC [2]: 6.08 AU
- Average Velocity [2]: 0.88 %/min
- Clot Contraction Extent [2]: 85.15%
- Lag time [2]: 40.00 min
- PHASE 1 % Contraction [2]: 7.21%
- PHASE 1 Rate 1 [2]: 4.00 ×10^−3 %/min
- PHASE 1 t1 [2]: 24.67 min
- PHASE 2 % Contraction [2]: 28.71%
- PHASE 2 Rate 2 [2]: 1.00 %/min
- PHASE 2 t2 [2]: 51.00 min
- PHASE 3 % Contraction [2]: 49.27%
- PHASE 3 Rate 3 [2]: 3.47 ×10^−2 %/min
- AUC [3]: 6.79 AU
- Average Velocity [3]: 0.69 %/min
- Clot Contraction Extent [3]: 66.52%
- Lag time [3]: 43.67 min
- PHASE 1 % Contraction [3]: 12.21%
- PHASE 1 Rate 1 [3]: 5.00 ×10^−3 %/min
- PHASE 1 t1 [3]: 31.00 min
- PHASE 2 % Contraction [3]: 14.17%
- PHASE 2 Rate 2 [3]: 0.69 %/min
- PHASE 2 t2 [3]: 49.33 min
- PHASE 3 % Contraction [3]: 40.15%
- PHASE 3 Rate 3 [3]: 1.70 ×10^−2 %/min
- Effect on Phase 2 contraction rate (blebbistatin 50 to 200 μM): drastic decrease
- Effect on average velocity (blebbistatin 50 to 200 μM): decrease
- Effect on extent of clot contraction (blebbistatin 50 to 200 μM): decrease
- Effect on lag time (blebbistatin 50 to 200 μM): dose-dependent increase

SMILES: [Ca+2].[Cl-].[Cl-] [CaCl2]
- AUC [4]: 3.78 AU
- Average Velocity [4]: 0.98 %/min
- Clot Contraction Extent [4]: 97.02%
- Lag time [4]: 15.00 min
- PHASE 1 % Contraction [4]: 2.91%
- PHASE 1 Rate 1 [4]: 5.00 ×10^−3 %/min
- PHASE 1 t1 [4]: 7.00 min
- PHASE 2 % Contraction [4]: 29.63%
- PHASE 2 Rate 2 [4]: 1.51 %/min
- PHASE 2 t2 [4]: 27.33 min
- PHASE 3 % Contraction [4]: 64.48%
- PHASE 3 Rate 3 [4]: 1.51 ×10^−2 %/min
- AUC [5]: 3.93 AU
- Average Velocity [5]: 0.96 %/min
- Clot Contraction Extent [5]: 95.36%
- Lag time [5]: 15.67 min
- PHASE 1 % Contraction [5]: 3.27%
- PHASE 1 Rate 1 [5]: 4.67 ×10^−3 %/min
- PHASE 1 t1 [5]: 8.33 min
- PHASE 2 % Contraction [5]: 27.00%
- PHASE 2 Rate 2 [5]: 1.43 %/min
- PHASE 2 t2 [5]: 28.00 min
- PHASE 3 % Contraction [5]: 65.48%
- PHASE 3 Rate 3 [5]: 1.43 ×10^−2 %/min
- AUC [6]: 3.69 AU
- Average Velocity [6]: 0.99 %/min
- Clot Contraction Extent [6]: 98.08%
- Lag time [6]: 17.67 min
- PHASE 1 % Contraction [6]: 5.50%
- PHASE 1 Rate 1 [6]: 5.00 ×10^−3 %/min
- PHASE 1 t1 [6]: 12.33 min
- PHASE 2 % Contraction [6]: 31.17%
- PHASE 2 Rate 2 [6]: 1.87 %/min
- PHASE 2 t2 [6]: 30.00 min
- PHASE 3 % Contraction [6]: 61.41%
- PHASE 3 Rate 3 [6]: 1.87 ×10^−2 %/min
- Differences in clot contraction (calcium between 0.1 and 1 mM): limited differences

SMILES: O=C(O)CN(CCOCCOCCN(CC(=O)O)CC(=O)O)CC(=O)O [EGTA, reference compound]
- AUC [7]: 7.83 AU
- Average Velocity [7]: 0.51 %/min
- Clot Contraction Extent [7]: 50.72%
- Lag time [7]: 71.67 min
- Effect on average contraction velocity (EGTA included): significantly reduced
- Detection of the three phases of contraction (in the presence of EGTA): none of the three phases was detectible

SMILES: N=C(N)NCCCC[C@@H]1NC(=O)CCSSC[C@@H](C(N)=O)NC(=O)[C@@H]2CCCN2C(=O)[C@H](Cc2c[nH]c3ccccc23)NC(=O)[C@H](CC(=O)O)NC(=O)CNC1=O [Eptifibatide, eptifibatide, reference compound] ([Mpa][hArg]GDWPC-NH2; disulfide 1-7)
- AUC: 5.51 AU and 6.76 AU and 6.84 AU
- Average Velocity [8]: 0.91 %/min
- Clot Contraction Extent [8]: 89.56%
- Lag time [8]: 29.33 min
- PHASE 1 % Contraction [8]: 5.36%
- PHASE 1 Rate 1 [8]: 3.93 ×10^−3 %/min
- PHASE 1 t1 [8]: 14.33 min
- PHASE 2 % Contraction [8]: 32.14%
- PHASE 2 Rate 2 [8]: 1.96 %/min
- PHASE 2 t2 [8]: 43.00 min
- PHASE 3 % Contraction [8]: 52.91%
- PHASE 3 Rate 3 [8]: 3.83 ×10^−2 %/min
- Average Velocity [9]: 0.74 %/min
- Clot Contraction Extent [9]: 73.02%
- Lag time [9]: 46.67 min
- PHASE 1 % Contraction [9]: 9.24%
- PHASE 1 Rate 1 [9]: 4.00 ×10^−3 %/min
- PHASE 1 t1 [9]: 26.00 min
- PHASE 2 % Contraction [9]: 20.75%
- PHASE 2 Rate 2 [9]: 1.08 %/min
- PHASE 2 t2 [9]: 52.00 min
- PHASE 3 % Contraction [9]: 43.03%
- PHASE 3 Rate 3 [9]: 2.20 ×10^−2 %/min
- Detection of the three phases of contraction (eptifibatide 150 μM): none of the three phases were detectible
- Average Velocity [10]: 0.67 %/min
- Clot Contraction Extent [10]: 66.08%
- Lag time [10]: 50 min
- Effect on average velocity of contraction (eptifibatide 50 to 150 μM): dose-dependent decrease
- Effect on extent of contraction (eptifibatide 50 to 150 μM): dose-dependent decrease
- Increase in lag time (eptifibatide 50 to 150 μM): ~4 fold
